Patent US8772235B2, “Compounds having peptides conjugated to bone targeting moieties and methods of making and using thereof” (The Governors of the University of Alberta, priority 2009, dated 2014)

Assays:
[1] = ELISA: anti-calcitonin antibody epitope and bone calcium binding on calcium phosphate coated plate (SMCC series); conditions: 1 μg/well, OD 650 nm
Protocol: (§1) sCT or sCT analogues equivalent to 1 μg/well were added in Calcium Phosphate coated Osteoclast Activity Assay Substrate plate (OCT USA, Inc.) in duplicate and the binding of BP to the calcium phosphate was allowed for 1 hours in the presence of 100 μl 100 mM Sodium Phosphate buffer pH 7. Plates were then washed three times with the same buffer containing 0.05% v/v Tween 80 (PBST). To avoid nonspecific binding, the wells were incubated with 3% w/v Bovine Serum Albumin for 1 h at room temperature. After washings, the wells were incubated with 100 μl of 1:5000 diluted rabbit anti-salmon calcitonin primary antibodies (US Biologicals, USA) for 1 h at room temperature. The wells were then washed three times with PBST and the bound antibodies were then incubated with secondary antibody, 1:5000 diluted goat anti-rabbit IgG conjugated with horseradish peroxidase (GAM-HRPO), for 1 h at room temperature. After final washings, 100 μl of 3,3′,5,5′-tetramethylbenzidine (TMB substrate) was added to each well and incubated for 15 min at room temperature. The optical density (OD) was measured at 650 nm using an ELISA Vmax kinetic microplate reader (Molecular Devices Corp., California, and USA).

[2] = ELISA: anti-calcitonin antibody epitope binding on calcium phosphate coated plate (PEG series); conditions: 1 μg/well, OD 650 nm
Protocol: as §1, with “with […]” for “with 100 μl”, “primary monoclonal” for “primary”, “were detected using” for “were then incubated with”, “peroxidase (GAM-HRPO)” for “peroxidase (GAM-HRPO),”

RAW 264.7 cells = assay: MTT cytotoxicity on osteoclast precursor RAW 264.7 cells (SMCC series); assay type: cell-based; conditions: 100, 500 and 1000 nM sCT or equivalent, 4 hrs
Protocol: RAW 264.7 cells (ATCC VA, USA) were seeded on 96 well plates at an initial density of 2×10^4 cells/well and incubated in 200 μl GIBCO High Glucose 1× Dulbecco's Modified Eagle Medium (DMEM) (Invitrogen CA, USA) supplemented with 4.5 g/L D-Glucose, L-Glutamine, 110 mg/L Sodium Pyruvate, 10% heat inactivated fetal bovine serum (FBS) and 1% Penicillin-Streptomycin (10000 U/mL; Invitrogen) in a Thermo Fisher Scientific Water Jacketed CO2 incubator (37° C., 5% CO2).
After 72 hrs, media was replaced by 200 μl basic DMEM media without FBS and incubated for 30 minutes. […] After removing the supernatant and washing twice with phosphate buffer saline, purple formazan crystals formed were dissolved in 200 μl solubilization solution (in vitro toxicology assay kit, # TOX-1, Sigma Aldrich, St. Louis, USA) and the absorbance was measured at 570 nm using microplate reader. Experiment was performed for n=8 and the absorbance of wells containing cells without sCT treatment was considered as 100% viable and used to calculate the relative viability of sCT treated cells.
In MTT assay, mitochondrial dehydrogenases of viable cells cleave the tetrazolium ring of MTT yielding purple formazan crystals which are insoluble in aqueous solutions. They were dissolved in acidified isopropanol and the resulting purple solution was measured spectrophotometrically. […]

[3] = Hydroxyapatite (HA) binding assay, bone mineral affinity; conditions: 10 μg sCT, 1 mg HA, 1 h, 100 mM phosphate buffer pH 7.0
Protocol: Bone targeting potential of sCT analogue was evaluated by determining the effect of sCT modification (due to chemical coupling) upon its bone mineral affinity. Specific volume of purified sCT analogue solution containing 10 μg of sCT was mixed with 1 mg Hydroxyapatite (HA) in 150 μL 100 mM phosphate buffer (pH 7.0) in microcentrifuge tubes in duplicate to give a final concentration of 66.67 μg/ml sCT. As a reference, control samples were incubated in tubes without HA (i.e., 0% of binding).
The tubes were incubated at room temperature on a shaker for 1 h, and centrifuged at 5000 g for 5 minutes to separate the HA from the supernatant. sCT concentration in the supernatant was determined using the BCA microprotein assay (Pierce, USA) as described above. HA centrifugate remaining after removal of supernatant was washed five times using 1 mL buffer each time and the last washing after centrifugation at 5000 g for 5 minutes was collected. Both the washings and the HA centrifugate were then analyzed for sCT as described above. The amount of sCT in the supernatant, washings and HA centrifugate was then inferred by measuring the absorbance at 562 nm, with a value of 100% for control samples without HA.

serum albumin = serum albumin (Homo sapiens, UniProt P02768); conditions: systemically administered; cited from earlier work

- detection in ELISA after binding to calcium phosphate plate [1]: not significantly detected
- detection in ELISA after binding to calcium phosphate plate [2]: not significantly detected
- sCT bound in HA [3]: did not significantly bind to HA
Substance: Salmon calcitonin [sCT, reference compound]
- cytotoxicity (absorbance of formazan solution) compared to untreated media (RAW 264.7 cells): low levels of cytotoxicity
- serum albumin bound in circulation (serum albumin): 40%
